{
  "source": "patent US7799353B2",
  "about": "“Pharmaceutical mixture for hepatitis treatment and its preparation method” (Industrial Technology Research Institute, priority 2003, dated 2010)",
  "key": {"[1]": {"tested_on": "d-galactosamine-induced liver damage", "experiment": "Histopathological sections of liver of d-galactosamine-induced acute hepatitis animals", "type": "in vivo, rats", "conditions": "300 mg/kg", "procedure": "(§1) Rats are randomly divided, with six rats in each group. The animals fasted for 24 hr before the experiment. In the study, normal and d-galactosamine (Gal) groups are orally given with distilled water, testing groups are orally given with 1 g/kg of the test articles (JM, BMEC-1 or BMEC-101 from different processes) dissolving in distilled water, and rats in positive control group are orally administrated with silymarin (200 mg/kg) and guanine (300 mg/kg). One hour later, each group is i.p. with d-galactosamine (400 mg/kg), and the normal group is i.p. with saline. Four and eight hours after d-galactosamine injection, the same dosages are administrated again. Twenty-four hours after d-galactosamine injection, the animals are anesthetized with ether, and the blood is collected from the carotid artery. The serum is separated and stands still at room temperature for 1 hr, and centrifuged (Backman centrifuge, GS-6R, 3000 rpm) for 10 mins. The activities of rat serum GOT and GPT are measured.\nAfter blood is collected, the liver of the acute hepatitis animal induced by d-galactosamine is separated, and liver tissue around 0.5 cm^3 in each folium is taken out. Those tissues are fixed in 10% neutral formalin for 1 to 2 weeks, then dehydrated and paraffin embedded by the dehydration and wax-exudation device, and cut into 4 to 5 μm liver slices by rotary microtome. The slices are stained with Haematoxylin and Eosin, and the pathological patterns are observed under an optical microscope."}, "[2]": {"tested_on": "d-galactosamine-induced acute hepatitis", "experiment": "d-galactosamine-induced acute hepatitis in rats, serum GOT/GPT (Embodiment 6, silymarin and guanine positive controls)", "type": "in vivo", "procedure": "as §1"}, "[3]": {"tested_on": "d-galactosamine-induced acute hepatitis", "experiment": "d-galactosamine-induced acute hepatitis in rats, serum GOT/GPT (Embodiment 5, guanine positive control)", "type": "in vivo", "conditions": "for reduction of sGOT value / reduction of sGPT value: vs d-galactosamine group", "procedure": "Male rats are randomly divided, with five rats in the individual group and 200±20 g of each. In the study, normal and d-galactosamine (Gal) groups are orally given with distilled water, testing groups are orally given with test articles (JM or BMEC-1 from different processes) dissolving in distilled water, positive control group is orally given with guanine (300 mg/kg), and each administration dosage is 10 ml/kg.\nHalf-hour later, each group is i.p. with d-galactosamine (500 mg/kg) except the normal group. Four and eight hours after d-galactosamine injection, the same dosages are administrated again. Twenty-four hours after d-galactosamine injection, the animals are sacrificed for collecting the blood, and then the serum GOT (Glutamyl Oxaloacetic Transaminase) and GPT (Glutamyl Pyrubic Transaminase) activities are measured by using HITACHI auto-analyzing system (model 7050) with UV method."}, "[4]": {"conditions": "Table 5, oral 300 × 3 mg/kg, Gal 400 mg/kg i.p., mean ± SEM, n = 6"}, "[5]": {"conditions": "Table 5 experiment, oral 300×3 mg/kg, vs d-galactosamine group"}, "[6]": {"conditions": "Table 2, oral 300 × 3 mg/kg, Gal 500 mg/kg i.p., serum 24 h after Gal, mean ± SEM, n = 5"}, "[7]": {"conditions": "Table 2 experiment, positive control, oral 300 × 3 mg/kg"}, "[8]": {"conditions": "Table 3, oral 300 × 3 mg/kg, Gal 500 mg/kg i.p., mean ± SEM, n = 5"}, "[9]": {"conditions": "Table 3 experiment, oral 300×3 mg/kg"}, "[10]": {"conditions": "Table 4 Batch 1, oral 300 × 3 mg/kg, Gal 500 mg/kg i.p., mean ± SEM, n = 5"}, "[11]": {"conditions": "Table 4 Batch 1, oral 300×3 mg/kg"}, "[12]": {"conditions": "Table 4 Batch 2, oral 300 × 3 mg/kg, Gal 500 mg/kg i.p., mean ± SEM, n = 5"}, "[13]": {"conditions": "Table 4 Batch 2, oral 300×3 mg/kg"}},
  "data": [
    {"compound": "Nc1nc2nc[nH]c2c(=O)[nH]1", "note": "[guanine]", "values": [
      {"measurement": "Fibrosis", "setting": "[1]; liver fibrosis grade", "value": 1},
      {"measurement": "Balloon degeneration", "setting": "[1]; liver histopathology grade", "value": 0},
      {"measurement": "Bile duct proliferation", "setting": "[1]; liver histopathology grade", "value": 1},
      {"measurement": "Fatty change", "setting": "[1]; liver histopathology grade", "value": 1},
      {"measurement": "Inflammation", "setting": "[1]; liver histopathology grade", "value": 1},
      {"measurement": "Mitosis", "setting": "[1]; liver histopathology grade", "value": 0},
      {"measurement": "Necrosis", "setting": "[1]; liver histopathology grade", "value": 0},
      {"measurement": "sGOT", "setting": "[2]; [4]", "value": "160.7 ± 33.5", "unit": "U/L"},
      {"measurement": "sGPT", "setting": "[2]; [4]", "value": "55.1 ± 19.2", "unit": "U/L"},
      {"measurement": "reduction of sGOT value", "setting": "[2]; [5]", "value": 70, "unit": "%"},
      {"measurement": "reduction of sGPT value", "setting": "[2]; [5]", "value": 79, "unit": "%"},
      {"measurement": "sGOT", "setting": "[3]; [6]", "value": "980.0 ± 92.5", "unit": "U/L"},
      {"measurement": "sGPT", "setting": "[3]; [6]", "value": "589.6 ± 54.6", "unit": "U/L"},
      {"measurement": "reduction of sGOT value", "setting": "[3]; [7]", "value": 24, "unit": "%"},
      {"measurement": "reduction of sGPT value", "setting": "[3]; [7]", "value": 32, "unit": "%"},
      {"measurement": "sGOT", "setting": "[3]; [8]", "value": "954.8 ± 122.1", "unit": "U/L"},
      {"measurement": "sGPT", "setting": "[3]; [8]", "value": "514.4 ± 78.2", "unit": "U/L"},
      {"measurement": "reduction of sGOT value", "setting": "[3]; [9]", "value": 45, "unit": "%"},
      {"measurement": "reduction of sGPT value", "setting": "[3]; [9]", "value": 59, "unit": "%"},
      {"measurement": "sGOT", "setting": "[3]; [10]", "value": "1055.6 ± 150.1", "unit": "U/L"},
      {"measurement": "sGPT", "setting": "[3]; [10]", "value": "699.2 ± 103.6", "unit": "U/L"},
      {"measurement": "reduction of sGOT value", "setting": "[3]; [11]", "value": 49, "unit": "%"},
      {"measurement": "reduction of sGPT value", "setting": "[3]; [11]", "value": 41, "unit": "%"},
      {"measurement": "GOT", "setting": "[3]; [12]", "value": "1080.0 ± 181.7", "unit": "U/L"},
      {"measurement": "GPT", "setting": "[3]; [12]", "value": "584.0 ± 114.9", "unit": "U/L"},
      {"measurement": "reduction of sGOT value", "setting": "[3]; [13]", "value": 42, "unit": "%"},
      {"measurement": "reduction of sGPT value", "setting": "[3]; [13]", "value": 49, "unit": "%"}
    ]}
  ]
}
